doi:10.1101/471615v1 (biorxiv, 2018)

Molecular target: T1, GAK (InCELL Pulse) (Homo sapiens, UniProt O14976)
T1 sequence (O14976 2-1311): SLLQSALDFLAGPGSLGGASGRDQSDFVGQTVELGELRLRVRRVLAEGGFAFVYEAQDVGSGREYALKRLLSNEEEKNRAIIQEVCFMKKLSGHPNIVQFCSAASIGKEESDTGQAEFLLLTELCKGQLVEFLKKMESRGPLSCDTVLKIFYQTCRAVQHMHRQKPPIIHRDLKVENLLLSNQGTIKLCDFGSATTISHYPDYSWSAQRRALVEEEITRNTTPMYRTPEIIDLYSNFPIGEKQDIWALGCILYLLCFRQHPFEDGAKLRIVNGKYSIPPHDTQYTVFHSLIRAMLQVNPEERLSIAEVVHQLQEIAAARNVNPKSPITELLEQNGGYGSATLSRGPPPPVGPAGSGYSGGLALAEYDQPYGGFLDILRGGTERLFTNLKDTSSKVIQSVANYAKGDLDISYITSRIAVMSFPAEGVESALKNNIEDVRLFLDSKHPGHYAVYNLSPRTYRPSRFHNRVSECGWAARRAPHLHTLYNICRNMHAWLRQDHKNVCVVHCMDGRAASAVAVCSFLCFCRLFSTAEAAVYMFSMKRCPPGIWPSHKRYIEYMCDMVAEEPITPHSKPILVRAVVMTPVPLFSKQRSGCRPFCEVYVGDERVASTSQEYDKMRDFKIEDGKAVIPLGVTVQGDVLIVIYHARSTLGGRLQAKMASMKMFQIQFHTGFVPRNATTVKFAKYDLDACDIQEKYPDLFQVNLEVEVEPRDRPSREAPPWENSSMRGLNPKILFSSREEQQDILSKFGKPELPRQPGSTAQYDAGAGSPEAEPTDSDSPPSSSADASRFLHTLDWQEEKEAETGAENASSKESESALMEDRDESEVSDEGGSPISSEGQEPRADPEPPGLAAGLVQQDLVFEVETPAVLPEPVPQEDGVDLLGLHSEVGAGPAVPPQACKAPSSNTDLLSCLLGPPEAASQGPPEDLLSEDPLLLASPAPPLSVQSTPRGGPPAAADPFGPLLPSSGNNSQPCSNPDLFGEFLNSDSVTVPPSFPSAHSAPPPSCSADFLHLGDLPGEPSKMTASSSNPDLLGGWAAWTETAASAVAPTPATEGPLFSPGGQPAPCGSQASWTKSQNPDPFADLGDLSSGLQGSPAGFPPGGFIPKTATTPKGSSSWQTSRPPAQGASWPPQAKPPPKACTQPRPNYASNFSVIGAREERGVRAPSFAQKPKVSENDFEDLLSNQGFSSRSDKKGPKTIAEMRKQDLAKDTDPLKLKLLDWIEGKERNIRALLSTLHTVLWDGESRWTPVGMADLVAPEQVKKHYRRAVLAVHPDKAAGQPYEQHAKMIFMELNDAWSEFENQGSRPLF
Assay: InCELL Pulse cellular target engagement
Format: cell-based
Conditions: in cells

| IC50 [µM] | SMILES |
| --- | --- |
| 0.045 | COc1cc2nccc(Nc3cc(OC)c(OC)c(OC)c3)c2cc1OC [compound 15, 6,7-disubstituted methoxy (15)] |
| 6.7 | COc1cc(Nc2ncnc3ccc(C(F)(F)F)cc23)cc(OC)c1OC [compound 19, quinazoline (19)] |
